The results in this text go back to patent US20160311791A1, “NOVEL TRICYCLIC CALCIUM SENSING RECEPTOR ANTOGONISTS FOR THE TREATMENT OF OSTEOPOSOSIS” (MERCK SHARP & DOHME CORP., priority 2013, published 2016).

Each structure is given as a SMILES string.

The target in one series is T1, human CaSR (Homo sapiens, UniProt P41180).
T1 sequence (P41180 20-1078): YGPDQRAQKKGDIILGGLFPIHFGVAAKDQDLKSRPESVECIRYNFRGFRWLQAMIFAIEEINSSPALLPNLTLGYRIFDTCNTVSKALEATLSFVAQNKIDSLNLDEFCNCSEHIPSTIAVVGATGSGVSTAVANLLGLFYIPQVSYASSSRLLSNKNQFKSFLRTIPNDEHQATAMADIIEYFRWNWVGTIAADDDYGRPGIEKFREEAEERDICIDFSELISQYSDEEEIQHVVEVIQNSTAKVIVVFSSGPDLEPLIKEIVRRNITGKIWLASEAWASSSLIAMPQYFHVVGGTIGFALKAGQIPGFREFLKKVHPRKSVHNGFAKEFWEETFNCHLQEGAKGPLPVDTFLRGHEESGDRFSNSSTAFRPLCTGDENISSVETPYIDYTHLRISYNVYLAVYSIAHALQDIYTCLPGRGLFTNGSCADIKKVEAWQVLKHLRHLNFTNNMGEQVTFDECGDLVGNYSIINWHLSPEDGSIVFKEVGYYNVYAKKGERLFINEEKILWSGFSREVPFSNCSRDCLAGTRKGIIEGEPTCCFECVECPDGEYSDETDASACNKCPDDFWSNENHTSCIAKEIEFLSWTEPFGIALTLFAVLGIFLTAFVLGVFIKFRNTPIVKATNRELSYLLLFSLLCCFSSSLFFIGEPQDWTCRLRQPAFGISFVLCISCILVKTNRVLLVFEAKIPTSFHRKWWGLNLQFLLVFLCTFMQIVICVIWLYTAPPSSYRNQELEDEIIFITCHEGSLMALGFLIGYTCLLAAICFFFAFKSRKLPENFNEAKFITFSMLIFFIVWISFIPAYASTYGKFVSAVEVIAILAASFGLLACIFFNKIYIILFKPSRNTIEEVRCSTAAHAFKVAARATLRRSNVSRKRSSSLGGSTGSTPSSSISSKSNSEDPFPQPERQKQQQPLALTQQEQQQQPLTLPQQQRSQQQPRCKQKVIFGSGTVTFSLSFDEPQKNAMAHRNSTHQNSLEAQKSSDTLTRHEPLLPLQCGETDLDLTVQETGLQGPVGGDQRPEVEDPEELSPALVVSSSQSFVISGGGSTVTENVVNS
The experiment in a line: CaSR binding assay (radioligand, HEK293 membranes). Set-up: expressed in transfected cells; host or cells: HEK293 cell membranes. Conditions: for Ki: membranes of HEK293 cells expressing human CaSR, radio-labeled EXAMPLE 25; for IC50: read-out: IC50s (high affinity for the human calcium sensing receptor and potent antagonist activity). As to the method:
Procedures for CaSR Binding Assay
Membrane preparations from HEK293 cells expressing the human CaSR were generated. The cells were cultured and then washed twice with 1×PBS. The cells were dissociated by adding 4 ml pre-warmed 0.25% Trypsin-EDTA, and by incubating the flask at RT for 3 minutes. 10 ml media was dispensed over the cell layer surface, and the cells were harvested into a centrifuge tube. The cells were centrifuged at 200×g for 10 minutes. The cell pellet was suspended in 30 ml of membrane preparation buffer and then homogenized on ice twice at 16000 rpm for 10 seconds. Following homogenization, the membrane was collected by centrifuge at 40000×g for 30 minutes at 4° C., washed twice with 30 ml membrane preparation buffer, and centrifuged again at 40000×g for 10 minutes. The membrane pellet was suspended in 30 ml membrane preparation buffer (50 mM Tris, pH7.0, 10 mM MgCl, Proteinase inhibitor (Roche, REF 04693116001), and then homogenized on ice once at 16000 rpm for 10 seconds. The total protein concentration was measured using a BCA kit. The membrane protein concentration was adjusted to 2.4 mg/ml and then diluted with binding buffer (10 mM HEPES, pH7.4, 130 mM NaCl, 0.4 mM CaCl2, 5 mM MgCl2, 1 mM EGTA, 10 mM glucose, 0.1% BSA) to 0.33 μg/μl. The final amount in the binding assay was 20 μg/well. Test compound was serially diluted manually by using BIOHIT multi-channel pipettor in 100% DMSO (10 point, 3-fold dilution of each compound from 5.0 μM in 100% DMSO). 4 μl of serially diluted compound was manually transferred into a second assay microplate that contained 196 μl of binding assay buffer to create the intermediate dilution plate. For background, 20 μl of assay buffer was added to each control well. […] The binding reaction used a 100 μl reaction volume consisting of 10 μl of test compound, 30 μl of diluted radio-labelled compound, and 60 μl of membrane solution (0.33 μg/μl). The reaction mixture was incubated at room temperature for one hour. The Grade GF/C filter plates were presoaked in 0.3% PEI (protect from light) for 60 minutes at room temperature. The plate was then washed three times with ice-cold wash buffer (25 mM Tris-HCl, PH7.4, 130 mM NaCl, 5 mM MgCl2, 0.4 mM CaCl2, 0.1% BSA) prior to filtration of the binding samples. The binding reaction was terminated by rapid filtration of 100 μl binding mixture through the GF/C plate. Plates were then washed 6 times with ice-cold wash buffer. Filter plates were dried with a hair dryer for 20 minutes. 60 μl/well MICROSCINT 20 (a cocktail for microplates) was added to the bottom of sealed filters, then the filters were sealed at the top with tape. Bound radioactivity was counted in a TOPCOUNT scintillation counter. Exemplary compounds bind in the 1-500 nM range.

The nature of series [1]: Pharmacokinetic evaluation in rats. The class given is in vivo, rat. Conditions: for clearance / Cmax / bioavailability / half-life: rat, plasma, dose and route not given; for clearance: read-out: Clp (plasma clearance); for Cmax: read-out: Cmax (maximum observed plasma concentration); for bioavailability: read-out: F % (bioavailability); for half-life: read-out: t1/2 (plasma half-life) (converted).

The subject of another series is PTH release. Briefly: In vivo pharmacodynamic effects: PTH (Rat Intact PTH 1-84 ELISA). Conditions: oral gavage. As to the method: Procedures for In Vivo Pharmacodynamic Effects
The objective of these studies was to assess the effect of compounds on stimulating PTH release and increasing calcium secretion in the rat. Male Sprague-Dawley rats (3-4 months old) were equipped with jugular vein cannulae (JVC) by surgical procedure. The rats were given the compound by oral gavage. Blood was sampled from the JVC at 15 minutes, 30 minutes, 60 minutes, 120 minutes, 240 minutes, 420 minutes, and 24 hrs post compound administration. Plasma was separated and used for a PTH ELISA assay and a calcium concentration assay. After the last blood sampling, the rats were sacrificed under anesthesia by inhalation of CO2. All procedures were conducted in compliance with the Animal Welfare Act, the Guide for the Care and Use of Laboratory Animals and the recommendations of the AVMA Panel on Euthanasia.
Rat plasma samples were used for measuring serum PTH levels: The Rat Intact PTH 1-84 ELISA kit (Immutopics Cat#60-2500) was used according to the manufacturer's instructions. Total serum calcium determination was made using a calcium arsenazo III reagent (Fisher Scientific Cat # Pointe Scientific Calcium (Arsenazo III) Reagents; Mfr. No.: C7529-500; Qty.: 500 mL. Mfr. No.: C7529-500, Part #23666172) according to the manufacturer's instructions. For these experiments, 2 μl of sample was added to 198 μl of reagent, mixed, and read at 650 nm.
(In an ELISA, binding on a coated surface is turned into a signal by an enzyme label.)

In general, Ki refers to the dissociation constant of the complex between target and ligand, obtained from inhibition or displacement. Usually clearance stands for the volume of plasma or blood freed of the substance per unit of time. In general, bioavailability refers to dose-corrected exposure relative to a reference, in per cent. Regarding `C[C@@H](OC[C@H](O)CNC(C)(C)Cc1ccc2ccccc2c1)c1cccc2c1[C@@H]1[C@H](O2)[C@H]1C(=O)O` [Example 5-1], at human CaSR, the Ki stood at 7 nM and the IC50 turned out to be 7 nM. For the same molecule, in series [1], the “half-lives in rats” value is on record as “short half-lives”, the “tmax” value was “less than an hour”, the clearance is 52.5 mL/min/kg and the Cmax was 690 nM. In series [1], the bioavailability came out at 7% and the half-life was 1.3 h. In addition, the “Maximum Change in PTH (fold)” value in the series on PTH release (at 10 mpk) is 8 (at fold.

Take `C[C@@H](OC[C@H](O)CNC(C)(C)Cc1ccc2ccccc2c1)c1cccc2c1O[C@@H]1[C@@H](C(=O)O)[C@H]21` [Example 1-1]: on human CaSR, the Ki is 18 nM and the IC50 is 18 nM. Moreover, in series [1], the “half-lives in rats” value is recorded as “short half-lives”, the “tmax” value is “less than an hour”, the clearance came out at 11 mL/min/kg and the Cmax worked out at 2400 nM. In series [1], the bioavailability came out at 24% and the half-life was 1.7 h. Moreover, in the series on PTH release (at 30 mpk), the “Maximum Change in PTH (fold)” value was 5.8 (at fold.

Take `CSc1ccc(CC(C)(C)NC[C@@H](O)CO[C@H](C)c2ccc(C)c3c2C2[C@H](O3)[C@H]2C(=O)O)cc1F` (stereo partly drawn) [Example 8-24]: on human CaSR, affinity was put at a Ki of 29 nM and the IC50 was 29 nM. In addition, in series [1], the “half-lives in rats” value was “short half-lives”, the “tmax” value is recorded as “less than an hour”, the clearance stood at 40 mL/min/kg and the Cmax is 160 nM. Besides, in series [1], the bioavailability came to 7% and the half-life is 1.8 h. Besides, the “Maximum Change in PTH (fold)” value with PTH release (at 30 mpk) is recorded as 4 (at fold.
